Source: paper PMC4441267

How the values were obtained:
[1] = CuAAC macrocyclisation of azide/terminal alkyne linear peptidomimetics to 1,4-triazole (CuI 2 eq, DIPEA 3 eq, Ar-degassed), then Boc removal (TMSCl/MeOH GP4; HCl/dioxane GP5 for A13w, J13w); conditions: THF (reflux), 1.2 mM, 66.0 °C, 18.0 h, 2 steps
[2] = RuAAC macrocyclisation of azide/terminal alkyne linear peptidomimetics to 1,5-triazole ([Cp*RuCl]4 0.1 eq, Ar-degassed), then Boc removal (TMSCl/MeOH GP4 or HCl/dioxane GP5); conditions: toluene (reflux), 1.25 mM, 111.0 °C, 18.0 h, 2 steps

Compound COC(=O)[C@@H]1CNC(=O)[C@H](Cc2ccccc2)n2cc(nn2)CCC(=O)NCC[C@H](NC(=O)OC(C)(C)C)C(=O)N1 [Boc-Dab(4-pentynoyl)-Dap(N3-Phe)-OMe] has a ring closure, yield over several steps ([1]; from C#CCCC(=O)NCC[C@H](NC(=O)OC(C)(C)C)C(=O)N[C@@H](CNC(=O)[C@H](Cc1ccccc1)N=[N+]=[N-])C(=O)OC, 17-membered ring) of 81%.

With COC(=O)[C@@H]1CCCCn2cc(nn2)CCC(=O)NCC[C@H](NC(=O)OC(C)(C)C)C(=O)N1 [Boc-Dab(4-pentynoyl)-Lys(N3)-OMe] the ring closure, yield over several steps ([1]; from C#CCCC(=O)NCC[C@H](NC(=O)OC(C)(C)C)C(=O)N[C@@H](CCCCN=[N+]=[N-])C(=O)OC, 17-membered ring) was 62%.

COC(=O)[C@@H]1CCCCNC(=O)[C@H](Cc2ccccc2)n2cc(nn2)CCC(=O)NCC[C@H](NC(=O)OC(C)(C)C)C(=O)N1 [Boc-Dab(4-pentynoyl)-Lys(N3-Phe)-OMe] gave a ring closure, yield over several steps ([1]; from C#CCCC(=O)NCC[C@H](NC(=O)OC(C)(C)C)C(=O)N[C@@H](CCCCNC(=O)[C@H](Cc1ccccc1)N=[N+]=[N-])C(=O)OC, 20-membered ring) of 91%.

COC(=O)[C@@H]1CCCn2cc(nn2)CCC(=O)NCC[C@H](NC(=O)OC(C)(C)C)C(=O)N1 [Boc-Dab(4-pentynoyl)-Orn(N3)-OMe] gave a ring closure, yield over several steps ([1]; from C#CCCC(=O)NCC[C@H](NC(=O)OC(C)(C)C)C(=O)N[C@@H](CCCN=[N+]=[N-])C(=O)OC, 16-membered ring) of 99%.

COC(=O)[C@@H]1CNC(=O)[C@H](Cc2ccccc2)n2cc(nn2)CCCC(=O)NCC[C@H](NC(=O)OC(C)(C)C)C(=O)N1 [Boc-Dab(5-hexynoyl)-Dap(N3-Phe)-OMe] gave a ring closure, yield over several steps ([1]; from C#CCCCC(=O)NCC[C@H](NC(=O)OC(C)(C)C)C(=O)N[C@@H](CNC(=O)[C@H](Cc1ccccc1)N=[N+]=[N-])C(=O)OC, 18-membered ring) of 70%.

COC(=O)[C@@H]1CCCCn2cc(nn2)CCCC(=O)NCC[C@H](NC(=O)OC(C)(C)C)C(=O)N1 [Boc-Dab(5-hexynoyl)-Lys(N3)-OMe] gave a ring closure, yield over several steps ([1]; from C#CCCCC(=O)NCC[C@H](NC(=O)OC(C)(C)C)C(=O)N[C@@H](CCCCN=[N+]=[N-])C(=O)OC, 18-membered ring) of 99%.

For COC(=O)[C@@H]1CCCCNC(=O)[C@H](Cc2ccccc2)n2cc(nn2)CCCC(=O)NCC[C@H](NC(=O)OC(C)(C)C)C(=O)N1 [Boc-Dab(5-hexynoyl)-Lys(N3-Phe)-OMe], the ring closure, yield over several steps ([1]; from C#CCCCC(=O)NCC[C@H](NC(=O)OC(C)(C)C)C(=O)N[C@@H](CCCCNC(=O)[C@H](Cc1ccccc1)N=[N+]=[N-])C(=O)OC, 21-membered ring) was 88%.

In the case of COC(=O)[C@@H]1CCCn2cc(nn2)CCCC(=O)NCC[C@H](NC(=O)OC(C)(C)C)C(=O)N1 [Boc-Dab(5-hexynoyl)-Orn(N3)-OMe], the ring closure, yield over several steps ([1]; from C#CCCCC(=O)NCC[C@H](NC(=O)OC(C)(C)C)C(=O)N[C@@H](CCCN=[N+]=[N-])C(=O)OC, 17-membered ring) is reported as 60%.

COC(=O)[C@@H]1CNC(=O)[C@H](Cc2ccccc2)n2cc(nn2)CNC(=O)NCC[C@H](NC(=O)OC(C)(C)C)C(=O)N1 [Boc-Dab(CONH-propargyl)-Dap(N3-Phe)-OMe] showed a ring closure, yield over several steps ([1]; from C#CCNC(=O)NCC[C@H](NC(=O)OC(C)(C)C)C(=O)N[C@@H](CNC(=O)[C@H](Cc1ccccc1)N=[N+]=[N-])C(=O)OC, 17-membered ring) of 64%.

Work on COC(=O)[C@@H]1CCCCn2cc(nn2)CNC(=O)NCC[C@H](NC(=O)OC(C)(C)C)C(=O)N1 [Boc-Dab(CONH-propargyl)-Lys(N3)-OMe] yielded a ring closure, yield over several steps ([1]; from C#CCNC(=O)NCC[C@H](NC(=O)OC(C)(C)C)C(=O)N[C@@H](CCCCN=[N+]=[N-])C(=O)OC, 17-membered ring) of 99%.

Compound COC(=O)[C@@H]1CCCCNC(=O)[C@H](Cc2ccccc2)n2nncc2CCCC(=O)NCCC[C@H](N)C(=O)N1 [Boc-Orn(5-hexynoyl)-Lys(N3-Phe)-OMe] has a ring closure, yield over several steps ([2]; from C#CCCCC(=O)NCCC[C@H](NC(=O)OC(C)(C)C)C(=O)N[C@@H](CCCCNC(=O)[C@H](Cc1ccccc1)N=[N+]=[N-])C(=O)OC, 21-membered ring) of 86%.

With COC(=O)[C@@H]1CCCn2nncc2CCCC(=O)NCCC[C@H](N)C(=O)N1 [Boc-Orn(5-hexynoyl)-Orn(N3)-OMe] the ring closure, yield over several steps ([2]; from C#CCCCC(=O)NCCC[C@H](NC(=O)OC(C)(C)C)C(=O)N[C@@H](CCCN=[N+]=[N-])C(=O)OC, 17-membered ring) was 99%.

Compound COC(=O)[C@@H]1Cc2ccc(cc2)-n2nncc2CCCC(=O)NCCC[C@H](N)C(=O)N1 [Boc-Orn(5-hexynoyl)-Phe(4-N3)-OMe] has a ring closure, yield over several steps ([2]; from C#CCCCC(=O)NCCC[C@H](NC(=O)OC(C)(C)C)C(=O)N[C@@H](Cc1ccc(N=[N+]=[N-])cc1)C(=O)OC, 19-membered ring) of 97%.

Work on COC(=O)[C@@H]1CNC(=O)[C@H](Cc2ccccc2)n2nncc2CNC(=O)NCCC[C@H](N)C(=O)N1 [Boc-Orn(CONH-propargyl)-Dap(N3-Phe)-OMe] yielded a ring closure, yield over several steps ([2]; from C#CCNC(=O)NCCC[C@H](NC(=O)OC(C)(C)C)C(=O)N[C@@H](CNC(=O)[C@H](Cc1ccccc1)N=[N+]=[N-])C(=O)OC, 17-membered ring) of 86%.

COC(=O)[C@@H]1CCCCn2nncc2CNC(=O)NCCC[C@H](N)C(=O)N1 [Boc-Orn(CONH-propargyl)-Lys(N3)-OMe] showed a ring closure, yield over several steps ([2]; from C#CCNC(=O)NCCC[C@H](NC(=O)OC(C)(C)C)C(=O)N[C@@H](CCCCN=[N+]=[N-])C(=O)OC, 17-membered ring) of 99%.

Work on COC(=O)[C@@H]1CCCCNC(=O)[C@H](Cc2ccccc2)n2nncc2CNC(=O)NCCC[C@H](N)C(=O)N1 [Boc-Orn(CONH-propargyl)-Lys(N3-Phe)-OMe] yielded a ring closure, yield over several steps ([2]; from C#CCNC(=O)NCCC[C@H](NC(=O)OC(C)(C)C)C(=O)N[C@@H](CCCCNC(=O)[C@H](Cc1ccccc1)N=[N+]=[N-])C(=O)OC, 20-membered ring) of 56%.

COC(=O)[C@@H]1CCCn2nncc2CNC(=O)NCCC[C@H](N)C(=O)N1 [Boc-Orn(CONH-propargyl)-Orn(N3)-OMe] gave a ring closure, yield over several steps ([2]; from C#CCNC(=O)NCCC[C@H](NC(=O)OC(C)(C)C)C(=O)N[C@@H](CCCN=[N+]=[N-])C(=O)OC, 16-membered ring) of 99%.

COC(=O)[C@@H]1Cc2ccc(cc2)-n2nncc2CNC(=O)NCCC[C@H](N)C(=O)N1 [Boc-Orn(CONH-propargyl)-Phe(4-N3)-OMe] gave a ring closure, yield over several steps ([2]; from C#CCNC(=O)NCCC[C@H](NC(=O)OC(C)(C)C)C(=O)N[C@@H](Cc1ccc(N=[N+]=[N-])cc1)C(=O)OC, 18-membered ring) of 46%.

COC(=O)[C@@H]1CCCCn2nncc2CCC(=O)Nc2ccc(cc2)C[C@H](N)C(=O)N1 [Boc-Phe(4-NH-4-pentynoyl)-Lys(N3)-OMe] showed a ring closure, yield over several steps ([2]; from C#CCCC(=O)Nc1ccc(C[C@H](NC(=O)OC(C)(C)C)C(=O)N[C@@H](CCCCN=[N+]=[N-])C(=O)OC)cc1, 19-membered ring) of 71%.

In the case of COC(=O)[C@@H]1CCCCNC(=O)[C@H](Cc2ccccc2)n2nncc2CCC(=O)Nc2ccc(cc2)C[C@H](N)C(=O)N1 [Boc-Phe(4-NH-4-pentynoyl)-Lys(N3-Phe)-OMe], the ring closure, yield over several steps ([2]; from C#CCCC(=O)Nc1ccc(C[C@H](NC(=O)OC(C)(C)C)C(=O)N[C@@H](CCCCNC(=O)[C@H](Cc2ccccc2)N=[N+]=[N-])C(=O)OC)cc1, 22-membered ring) is reported as 57%.

With COC(=O)[C@@H]1CCCn2nncc2CCC(=O)Nc2ccc(cc2)C[C@H](N)C(=O)N1 [Boc-Phe(4-NH-4-pentynoyl)-Orn(N3)-OMe] the ring closure, yield over several steps ([2]; from C#CCCC(=O)Nc1ccc(C[C@H](NC(=O)OC(C)(C)C)C(=O)N[C@@H](CCCN=[N+]=[N-])C(=O)OC)cc1, 18-membered ring) was 44%.

Work on COC(=O)[C@@H]1CNC(=O)[C@H](Cc2ccccc2)n2nncc2CCCC(=O)Nc2ccc(cc2)C[C@H](N)C(=O)N1 [Boc-Phe(4-NH-5-hexynoyl)-Dap(N3-Phe)-OMe] yielded a ring closure, yield over several steps ([2]; from C#CCCCC(=O)Nc1ccc(C[C@H](NC(=O)OC(C)(C)C)C(=O)N[C@@H](CNC(=O)[C@H](Cc2ccccc2)N=[N+]=[N-])C(=O)OC)cc1, 20-membered ring) of 15%.

Work on COC(=O)[C@@H]1CCCCn2nncc2CCCC(=O)Nc2ccc(cc2)C[C@H](N)C(=O)N1 [Boc-Phe(4-NH-5-hexynoyl)-Lys(N3)-OMe] yielded a ring closure, yield over several steps ([2]; from C#CCCCC(=O)Nc1ccc(C[C@H](NC(=O)OC(C)(C)C)C(=O)N[C@@H](CCCCN=[N+]=[N-])C(=O)OC)cc1, 20-membered ring) of 66%.

Work on COC(=O)[C@@H]1CCCCNC(=O)[C@H](Cc2ccccc2)n2nncc2CCCC(=O)Nc2ccc(cc2)C[C@H](N)C(=O)N1 [Boc-Phe(4-NH-5-hexynoyl)-Lys(N3-Phe)-OMe] yielded a ring closure, yield over several steps ([2]; from C#CCCCC(=O)Nc1ccc(C[C@H](NC(=O)OC(C)(C)C)C(=O)N[C@@H](CCCCNC(=O)[C@H](Cc2ccccc2)N=[N+]=[N-])C(=O)OC)cc1, 23-membered ring) of 50%.

Compound COC(=O)[C@@H]1CCCn2nncc2CCCC(=O)Nc2ccc(cc2)C[C@H](N)C(=O)N1 [Boc-Phe(4-NH-5-hexynoyl)-Orn(N3)-OMe] has a ring closure, yield over several steps ([2]; from C#CCCCC(=O)Nc1ccc(C[C@H](NC(=O)OC(C)(C)C)C(=O)N[C@@H](CCCN=[N+]=[N-])C(=O)OC)cc1, 19-membered ring) of 68%.
